Experimental data reported in US20250340561A1, “QUINAZOLINE COMPOUND FOR INDUCING DEGRADATION OF G12D MUTANT KRAS PROTEIN” (Astellas Pharma Inc., priority 2021, published 2025).
pIC50: −log10 of the molar value. Where two headings read alike, the source gives them in different places.

Tests used:
[1] = tested on: phosphorylation of ERK (Thr202/Tyr204); assay: Test Example 2: ERK phosphorylation inhibition action in AsPC-1, Cell ELISA; format: cell-based, human; conditions: AsPC-1 cells, 0% = 1 μM trametinib
Procedure: Test Example 2: Evaluation of ERK Phosphorylation Inhibition Action on Human G12D Mutant KRAS-Positive Pancreatic Cancer Line AsPC-1
The ERK phosphorylation inhibition action of test compounds was evaluated by measuring phosphorylation of the 202th threonine (Thr202) and the 204th tyrosine (Tyr204) of ERK located downstream of the KRAS signal by Cell ELISA.
AsPC-1 cells were seeded on a 384-well plate (from Greiner bio-one) at 36 μL/well to give 2.0×10^4 cells per well. As for the cell culture conditions, a RPMI 1640 medium containing 10% fetal bovine serum was used in the presence of 5% CO2 at 37° C.
The next day, the test compounds (6 points having final concentrations in the range of 10 μM to 3.0 nM), trametinib (MEK inhibitor) of a final concentration of 1 μM as a positive control and DMSO, which was the solvent for the test compounds, as a negative control were diluted 100-fold with a fresh medium and were added at 4 μL per well. The cells were then cultured for 24 hours. After culturing, a 30% glyoxal solution (40% glyoxal [from Nacalai Tesque] was diluted with PBS) was quickly added at 30 μL per well, and the plate was allowed to stand for 90 minutes at room temperature to thus immobilize the cells. Then, the plate was centrifuged to remove the supernatant (using a centrifugal dehydrator machine, the supernatant was removed by the same method hereinafter), and 0.1% Triton X-100-containing PBS was added at 20 μL per well. After allowing to stand for 10 minutes at room temperature, the supernatant was removed by centrifugation, and the same operation was further repeated. Next, 0.5% SDS-containing PBS was added at 20 μL per well, and after allowing to stand at room temperature for 30 minutes, the supernatant was removed by centrifugation. Subsequently, a blocking solution (Intercept Blocking Buffer) was added at 20 μL per well, and the plate was allowed to stand for 1 hour at room temperature. The supernatant was removed by centrifugation, and an ERK (Thr202/Tyr204) phosphorylation antibody (Phospho-p44/42 MAPK (Erk 1/2) (Thr202/Tyr204) (D13.14.4E) XP Rabbit mAb; from Cell Signaling Technology) diluted 2,500-fold with a blocking solution was added at 10 or 15 μL per well as a primary antibody. The plate was allowed to stand at 4° C. overnight.
The next day, the plate was centrifuged to remove the supernatant. 0.05% Tween-20-containing PBS was added at 50 μL per well, and the supernatant was removed by centrifugation to thus wash each well. The washing was performed three times in total. After washing, Goat anti-Rabbit IgG H&L (IRDye 800CW) diluted 1,000-fold with a blocking solution was added at […] as a secondary antibody, and the plate was allowed to stand for 1 hour at room temperature. The plate was centrifuged to remove the supernatant, and each well was washed three times with 0.05% Tween-20-containing PBS in the same manner as after the primary antibody reaction. After removing the supernatant by centrifuging the plate, the plate was dried as it was with air at room temperature for 3 hours or more, and the 800-nm fluorescent signals were measured with Aerius.
With the signaling value at the time of addition of DMSO taken as 100% and with the signaling value at the time of addition of 1 μM trametinib taken as 0%, the 50% inhibition values (IC50) were calculated by Sigmoid-Emax model nonlinear regression analysis. The molecular weights of the test compounds were calculated as the molecular weights of the dihydrochloride for Example No. 22, the trihydrochlorides for Example Nos. 2-7, 9-12, 14-18 and 30, the tetrahydrochlorides for Example Nos. 19 and 46, the pentahydrochloride for Example No. 21 and the free forms forming no salt for the remaining Example Nos. The results for some test compounds of the formula (I) are shown in Table 3.

[2] = tested on: human G12D mutant KRAS-positive pancreatic cancer line AsPC-1; assay: Test Example 3: non-anchorage-dependent cell growth inhibition, spheroid 3D cell culture; format: cell-based; conditions: AsPC-1 spheroid 3D culture, 6 days, CellTiter Glo 2.0
Procedure: Test Example 3: Evaluation of Non-Anchorage-Dependent Cell Growth Inhibition Action on Human G12D Mutant KRAS-Positive Pancreatic Cancer Line AsPC-1
The non-anchorage-dependent cell growth inhibition action of test compounds was evaluated by spheroid 3D cell culture.
AsPC-1 cells were seeded on a low-cell-adhesive round bottom 384-well plate (PrimeSurface: from Sumitomo Bakelite) at 36 μL/well to give 5×10^2 cells per well. The cell culture was performed under the same conditions as in the Test Example 2.
The next day, the test compounds (6 points having final concentrations in the range of 10 μM to 3.0 nM) and DMSO, which was the solvent for the test compounds, as a negative control were diluted 100-fold with a fresh medium and were added at 4 μL per well. After culturing in the presence of […] at 37° C. for 6 days, CellTiter Glo 2.0 (from Promega) was added at 20 μL per well. After stirring with a plate mixer (from FINEPCR) at normal temperature for 1 hour, the luminescent signals were measured with ARVO X3 (from PerkinElmer).
With the signaling value in treatment with DMSO taken as […] and with the signaling value in the medium alone without cells taken as […], the […] inhibition values (IC50) were calculated by Sigmoid-Emax model nonlinear regression analysis. The molecular weights of the test compounds were calculated as the molecular weights of the dihydrochloride for Example No. 22, the trihydrochlorides for Example Nos. 2-7, 9-12, 14-18 and 30, the tetrahydrochlorides for Example Nos. 19 and 46, the pentahydrochloride for Example No. 21 and the free forms forming no salt for the remaining Example Nos. The results for some test compounds of the formula (I) are shown in Table 4.

[3] = Homo sapiens, ASPC1, 24 h, read-out: IC50
[4] = Homo sapiens, ASPC1, 144 h, read-out: IC50

Row | pIC50 [1, 3] | pIC50 [2, 4] | Compound | pIC50 ([1]; Homo sapiens, ASPC1, 24 h) | pIC50 ([2]; Homo sapiens, ASPC1, 144 h) | also measured
1 | 7.29 | 6.86 | Cc1ncsc1-c1ccc([C@H](CN(C)C)NC(=O)[C@@H]2C[C@@H](O)CN2C(=O)[C@H](C(C)C)n2cc(-c3ccc(COc4c(-c5c(C)c(F)cc6[nH]ncc56)c(C5CC5)cc5c(N6C[C@@H]7C[C@H]6CN7)nc(OC6CCOCC6)nc45)cc3)nn2)cc1 [Example 19] | – | – | –
2 | 7.77 | 7.19 | Cc1c(F)cc2[nH]ncc2c1-c1c(C2CC2)cc2c(N3C[C@@H]4C[C@H]3CN4)nc(OC3CCOCC3)nc2c1OCc1ccc(-c2cn([C@H](C(=O)N3C[C@H](O)C[C@H]3C(=O)N[C@@H](CO)c3ccc(-n4ccnc4C)cc3)C(C)C)nn2)cc1 [Example 69] | – | – | –
3 | – | – | Cc1ncsc1-c1ccc([C@H](CO)NC(=O)[C@@H]2C[C@@H](O)CN2C(=O)[C@H](C(C)C)n2cc(-c3ccc(COc4c(-c5c(C)c(F)cc6[nH]ncc56)c(C5CC5)cc5c(N6C[C@@H]7C[C@H]6CN7)nc(OC[C@H]6CCOC6)nc45)cc3)nn2)cc1 [Example 51] | 7.85 | 7.57 | –
4 | – | – | Cc1c(F)cc2[nH]ncc2c1-c1c(C2CC2)cc2c(N3C[C@@H]4C[C@H]3CN4)nc(OC3CCOCC3)nc2c1OCc1ccc(-c2cn([C@H](C(=O)N3C[C@H](O)C[C@H]3C(=O)N[C@@H](CO)c3ccc(-c4ccnn4C)cc3)C(C)C)nn2)cc1 [Example 23] | – | – | pIC50 ([1]; 24 hours): 8.00; pIC50 [2]: 7.68
5 | 7.17 | 6.73 | Cc1ncsc1-c1ccc([C@@H](NC(=O)[C@@H]2C[C@@H](O)CN2C(=O)[C@H](C(C)C)n2cc(-c3ccc(COc4c(-c5c(C)c(F)cc6[nH]ncc56)c(C5CC5)cc5c(N6C[C@@H]7C[C@H]6CN7)nc(OC6CCOCC6)nc45)cc3)nn2)C(F)F)cc1 [Example 16] | – | – | –
6 | – | – | Cc1ncsc1-c1ccc([C@H](CO)NC(=O)[C@@H]2C[C@@H](O)CN2C(=O)[C@H](C(C)C)n2cc(-c3ccc(COc4c(-c5c(C)c(F)cc6[nH]ncc56)c(C5CC5)cc5c(N6C[C@@H]7C[C@H]6CN7)nc(OC6CCOCC6)nc45)cc3)nn2)cc1 [Example 8, (4R)-1-[(2S)-2-(4-{4-[({6-cyclopropyl-4-[(1S,4S)-2,5-diazabicyclo[2.2.1]heptan-2-yl]-7-(6-fluoro-5-methyl-1H-indazol-4-yl)-2-[(oxan-4-yl)oxy]quinazolin-8-yl}oxy)methyl]phenyl}-1H-1,2,3-triazol-1-yl)-3-methylbutanoyl]-4-hydroxy-N-{(1R)-2-hydroxy-1-[4-(4-methyl-1,3-thiazol-5-yl)phenyl]ethyl}-L-prolinamide] | – | – | pIC50 ([1]; 24 hours, read-out: IC50): 7.82; pIC50 ([2]; read-out: IC50): 7.64
7 | – | – | Cc1ncoc1-c1ccc([C@H](CO)NC(=O)[C@@H]2C[C@@H](O)CN2C(=O)[C@H](C(C)C)n2cc(-c3ccc(COc4c(-c5c(C)c(F)cc6[nH]ncc56)c(C5CC5)cc5c(N6C[C@@H]7C[C@H]6CN7)nc(OC6CCOCC6)nc45)cc3)nn2)cc1 [Example 38] | 7.55 | 7.57 | –
8 | – | – | Cc1ncsc1-c1ccc([C@H](CO)NC(=O)[C@@H]2C[C@@H](O)CN2C(=O)[C@H](C(C)C)n2cc(-c3ccc(COc4c(-c5c(C)c(F)cc6[nH]ncc56)c(C5CC5)cc5c(N6C[C@@H]7C[C@H]6CN7)nc(OC[C@H]6CCCN6C)nc45)cc3)nn2)cc1 [Example 60] | 7.30 | 6.90 | –
9 | 5.66 | 5.79 | Cc1ncsc1-c1ccc([C@@H](CO)NC(=O)[C@@H]2C[C@@H](O)CN2C(=O)[C@H](C(C)C)n2cc(-c3ccc(COc4c(-c5c(C)c(F)cc6[nH]ncc56)c(C5CC5)cc5c(N6C[C@@H]7C[C@H]6CN7)nc(OC6CCOCC6)nc45)cc3)nn2)cc1 [Example 68] | – | – | –
10 | – | – | COCC1(COc2nc(N3C[C@@H]4C[C@H]3CN4)c3cc(C4CC4)c(-c4c(C)c(F)cc5[nH]ncc45)c(OCc4ccc(-c5cn([C@H](C(=O)N6C[C@H](O)C[C@H]6C(=O)N[C@@H](CO)c6ccc(-c7scnc7C)cc6)C(C)C)nn5)cc4)c3n2)CC1 [Example 62] | 7.82 | 7.47 | –
11 | 7.44 | 7.10 | Cc1c(F)cc2[nH]ncc2c1-c1c(C2CC2)cc2c(N3C[C@@H]4C[C@H]3CN4)nc(OC3CCOCC3)nc2c1OCc1ccc(-c2cn([C@H](C(=O)N3C[C@H](O)C[C@H]3C(=O)N[C@@H](CO)c3ccc(N4CCOC4=O)cc3)C(C)C)nn2)cc1 [Example 20, (4R)-1-[(2S)-2-(4-{4-[({6-cyclopropyl-4-[(1S,4S)-2,5-diazabicyclo[2.2.1]heptan-2-yl]-7-(6-fluoro-5-methyl-1H-indazol-4-yl)-2-[(oxan-4-yl)oxy]quinazolin-8-yl}oxy)methyl]phenyl}-1H-1,2,3-triazol-1-yl)-3-methylbutanoyl]-4-hydroxy-N-{(1R)-2-hydroxy-1-[4-(2-oxo-1,3-oxazolidin-3-yl)phenyl]ethyl}-L-prolinamide] | – | – | –
12 | 7.19 | 7.05 | Cc1ncsc1-c1ccc([C@H](CO)NC(=O)[C@@H]2C[C@@H](O)CN2C(=O)[C@H](C(C)C)n2cc(-c3ccc(COc4c(-c5c(C)c(F)cc6[nH]ncc56)c(C5CC5)cc5c(N6C[C@@H]7C[C@H]6CN7)nc(OC[C@@H]6CCCN6C)nc45)cc3)nn2)cc1 [Example 57] | – | – | –
13 | – | – | Cc1c(F)cc2[nH]ncc2c1-c1c(C2CC2)cc2c(N3C[C@@H]4C[C@H]3CN4)nc(OC3CCOCC3)nc2c1OCc1ccc(-c2cn([C@H](C(=O)N3C[C@H](O)C[C@H]3C(=O)N[C@@H](CO)c3ccccc3)C(C)C)nn2)cc1 (atropisomer, axis not shown) [Example 14] | 7.20 | 6.82 | –
14 | – | – | Cc1ncsc1-c1ccc([C@H](CO)NC(=O)[C@@H]2C[C@@H](O)CN2C(=O)[C@H](C(C)C)n2cc(-c3ccc(COc4c(-c5c(C)c(F)cc6[nH]ncc56)c(C5CC5)cc5c(N6C[C@@H]7C[C@H]6CN7)nc(OC6CCOCC6)nc45)cc3)nn2)nc1 [Example 35] | 7.26 | 7.37 | –
15 | – | – | Cc1ncsc1-c1ccc([C@H](CO)NC(=O)[C@@H]2C[C@@H](O)CN2C(=O)[C@H](C(C)C)n2cc(-c3ccc(COc4c(-c5c(C)c(F)cc6[nH]ncc56)c(C5CC5)cc5c(N6C[C@@H]7C[C@H]6CN7)nc(OC6CCN(C7COC7)CC6)nc45)cc3)nn2)cc1 [Example 24] | 7.60 | 7.26 | –
